Reference: patent US20100069415A1, “2,6-DIPHENYL-4,8-DIAZOADAMANTAN-1-ONE AND DERIVATIVES THEREOF, PROCESS OF MANUFACTURE AND USE FOR THE FORMULATION OF SOLUTIONS WITH STERILIZING AND DISINFECTANT EFFECT” (PIETRO AFFAITATI, priority 2006, published 2010)

Assay: Solubility characterization of 2,6-diphenyl-4,8-diazoadamantan-1-one
Assay type: physicochemical
Excerpt: This molecule is soluble in propylene glycol and apolar organic solvents, whereas it is insoluble in water and ethanol.

Substance: 2,6-diphenyl-4,8-diazoadamantan-1-one
- solubility in apolar organic solvents (solvent: apolar organic solvents): soluble
- solubility in ethanol (solvent: ethanol): insoluble
- solubility in propylene glycol (solvent: propylene glycol): soluble
- solubility in water (solvent: water): insoluble
